Read-outs that look alike come from different tables or passages of the source. Each block holds one molecule with its values, some of them ahead of it.
Assays:
p38alpha [1] = target: T1, p38alpha (Homo sapiens, UniProt Q16539); test: p38 cascade kinase reaction (inactive p38alpha, MKK6, ATF2, ADP-Glo); type: biochemical; conditions: for inhibition at 10 µM: compound 10 μM; for inhibition at 100 µM: compound 100 μM
T1 construct: purchased Invitrogen PV3305
Experimental: Purified recombinant activated p38alpha (10 nM)(ProQinase) was preincubated 10 minutes at 30° C. with the compound of interest at concentrations between 1 and 100 µM in duplicate in a final volume of 30 ul of kinase buffer (Hepes 60 mM pH 7.5, MgCl2 3 mM, MnCl2 3 mM, Sodium Orthovanadate 3 μM, DTT 1.2 mM). After preincubation, peptide substrate (SignalChem #P03-58) and ATP were added to a final concentration of 10 μM and 100 μM respectively, and then incubated 40 minutes at 30° C. for the kinase reaction. Phosphorylation was analyzed with ADP-GloM (Promega #V9101) and emitted luminescence was measured with BMG Fluostar microplate reader.
(§1) After preincubation, MKK6 (ProQinase), ATF2 (ProQinase) and ATP were added to a final concentration of 10 nM, 5 μM and 10 μM respectively, then incubated 40 minutes at 30° C. and analyzed with ADP-Glo™.

p38beta = p38beta (Homo sapiens, UniProt Q15759); test: p38 cascade kinase reaction, p38beta/ATF-2; type: biochemical
Sequence of p38beta (Q15759 whole entry): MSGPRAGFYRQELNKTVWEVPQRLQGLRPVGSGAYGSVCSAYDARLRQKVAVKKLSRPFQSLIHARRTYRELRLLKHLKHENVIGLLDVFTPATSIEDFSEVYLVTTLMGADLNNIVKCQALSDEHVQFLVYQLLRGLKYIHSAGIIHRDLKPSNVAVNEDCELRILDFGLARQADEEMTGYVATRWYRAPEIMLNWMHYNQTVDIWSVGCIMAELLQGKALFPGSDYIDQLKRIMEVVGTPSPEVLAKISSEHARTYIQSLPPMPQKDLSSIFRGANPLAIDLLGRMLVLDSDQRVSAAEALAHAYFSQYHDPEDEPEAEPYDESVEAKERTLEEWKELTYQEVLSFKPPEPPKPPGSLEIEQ
Experimental: as §1

p38alpha wt = target: T2, p38alpha wt (Homo sapiens, UniProt Q16539); test: site-mutated p38 phosphorylation cascade assay, wild type; type: biochemical; conditions: compound 10 uM
T2 construct: made in house; host or cells: E. coli XL10-Gold
T2 sequence (Q16539 whole entry): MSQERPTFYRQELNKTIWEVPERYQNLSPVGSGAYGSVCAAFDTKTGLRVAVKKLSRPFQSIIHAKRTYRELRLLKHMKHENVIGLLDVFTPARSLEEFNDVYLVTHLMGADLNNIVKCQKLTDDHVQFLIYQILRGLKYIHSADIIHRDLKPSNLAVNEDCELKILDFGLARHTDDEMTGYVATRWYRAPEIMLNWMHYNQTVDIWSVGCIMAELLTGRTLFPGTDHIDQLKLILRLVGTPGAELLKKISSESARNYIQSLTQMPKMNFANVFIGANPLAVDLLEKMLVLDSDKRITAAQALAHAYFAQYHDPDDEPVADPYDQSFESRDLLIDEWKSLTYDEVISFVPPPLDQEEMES
Experimental: as §1
(§2) Replacement of specific residues arginine 186 and 189 of p38α (pGEX4T-1-p38α) for alanine was performed with the QuikChange Lightining Site-Directed Mutagenesis Kit (Agilent Technologies). The following oligonucleotides were used for the arginine 186 to alanine substitution: forward primer: 5′-SEQ ID NO 7-3′; reverse primer: 5′-SEQ ID NO 8-3′. Oligonucleotides used for the arginine 189 to alanine substitution were: forward primer: 5′-SEQ ID NO 9-3′; reverse primer: 5′-SEQ ID NO 10-3′. Mutations were validated by sequencing (Genomic Unit, Parque Cientifico de Madrid). E. coli XL10-Gold ultracompentent cells (Agilent Technologies) were transformed with the vector plasmids containing p38αWT and mutants. For the expression of recombinant p38α transformed cells were cultured overnight at 37° C. in 50 ml of fresh LB medium containing ampicillin (100 μg/ml). After that, culture was diluted in fresh LB to A595=0.4 and grown for approximately 1 h at 37° C. until exponential growth and then induced with Isopropyl-β-D-thiogalactopyranoside (IPTG) 1 mM for 5 h. The cells were collected by centrifugation and cell pellet were resuspended in 50 ml of cold lysis buffer: PBS pH 7.4, EDTA 10 mM, PMSF 1 mM, Benzamidine 0.2 mM, DTT 5 mM, Triton X-100 1% and Lysozyme 1 mg/ml. The soluble and insoluble fractions were separated by centrifugation (16,000 g for 20 min). The soluble fraction was incubated for 2 hours with 1 ml of pre-equilibrated Glutathione Sepharose 4B (GE Healthcare) and the resin was extensively washed in a column with 200 ml of binding buffer: PBS, PMSF 1 mM and benzamidine 0.2 mM. Proteins were eluted with 1 ml of Tris-HCl 50 mM pH 8.0 and reduced glutathione 20 mM. 20% glycerol was added to purified proteins and stored at −80° C. Protein concentration and purity was assessed by SDS-PAGE. Kinase activity was measured by ADP-glo kit using MKK6 as activator and ATF2 as substrate. Activity recorded for p38αR186A and p38αR189A were 15.5% and 4.8%, respectively (n=4) related to wild type protein.

p38αR186A = target: T3, p38αR186A (Homo sapiens, UniProt Q16539, R186A); test: site-mutated p38 phosphorylation cascade assay, R186A mutant; type: biochemical; conditions: compound 10 uM
T3 construct: made in house; host or cells: E. coli XL10-Gold
T3 sequence (Q16539 whole entry R186A): as the sequence (Q16539 whole entry) above, with R186A counted along it
Experimental: as §1, §2

p38αR189A = target: T4, p38αR189A (Homo sapiens, UniProt Q16539, R189A); test: site-mutated p38 phosphorylation cascade assay, R189A mutant; type: biochemical; conditions: compound 10 uM
T4 construct: made in house; host or cells: E. coli XL10-Gold
T4 sequence (Q16539 whole entry R189A): as the sequence (Q16539 whole entry) above, with R189A counted along it
Experimental: as §1, §2

[2] = tested on: Fibroblast-like synoviocytes (FLS) from patients with rheumatoid arthritis; test: inflammatory mediators (IL6, IL8, MCP-1) by ELISA in FLS stimulated with TNF-alpha; type: cell-based, human; conditions: for % of inflammatory mediators production in the presence of compounds, IL6 / % of inflammatory mediators production in the presence of compounds, IL8 / % of inflammatory mediators production in the presence of compounds, MCP-1: synoviocytes, TNFa + compound 100 uM
Experimental: Fibroblast-like synoviocytes (FLS) from patients with rheumatoid arthritis (RA) were obtained at the time of synovectomy or joint replacement. All RA patients fulfilled the American College of Rheumatology […] criteria for the diagnosis of RA (Arnett FC y cols. 1988 Arthritis Rheum 31(3):315-24).
Synovial tissue was minced and incubated with 10 μg/ml collagenase in serum-free Dulbecco modified Eagle medium (DMEM; Gibco Invitrogen, Barcelona, Spain) for 3 h at 37° C. After digestion, FLS were filtered through a nylon cell strainer (BD Falcon, Franklin Lakes, USA), washed extensively, and cultured in DMEM supplemented with 10% v/v fetal calf serum, 1% penicillin-streptomycin, and 1% L-glutamine (all reagents from PAA, Laboratories GmbH) in a humidified 5% C02 atmosphere. Adherent cells at 80-90% confluence were trypsinised and diluted at a split ratio of 1:3. FLS from 4 patients and between passages 3 to 8 were used for all experiments.
Enzyme-Linked Immunosorbent Assay (ELISA): RA FLS (1×10^4 cells/well) were cultured in DMEM 1% FCS in 96 well plates and treated with p-p38 inhibitors for 1 h. After, they were stimulated with TNF-α (10 ng/ml, Sigma Aldrich) and both treatments were present in the culture throughout the experiment. The supernatants were harvested at 18 h after treatment and assayed for IL6, IL8/CXCL8 and monocyte chemoattractant protein (MCP)-1/CCL2 by ELISA according to the manufacturer's instructions (BD Bioscience, San Jose, Calif., USA).

[3] = tested on: TNF-α secretion, THP-1 cells; test: Inhibition of TNF-α secretion by LPS-stimulated THP-1; type: cell-based; conditions: Homo sapiens, THP-1, 3 h, monocytes with LPS, read-out: TNF abetment
Experimental: Inhibition of TNF-α Secretion by a Human Monocytic Cell Line, THP-1.
THP-1 cells, growing in log phase, were collected by centrifugation and resuspended in RPMI 1640 (Sigma Aldrich), to a final cell concentration of 2×10^6 cells/ml. Cells were plated into 24-well plates (BD Biosciences). Dilutions of compounds in dimethyl sulfoxide (DMSO) were added to the culture to a final concentration M. The final DMSO concentration was 0.5%. The cells […] suspensions were preincubated with compounds for 1 h at 37° C. in a 5% C02 humidified atmosphere before the addition of LPS (Sigma Aldrich, L2654) to a final concentration of 2 μg/ml. After that, cells were incubated for 3 h followed by centrifugation to pellet cells. Cell supernatants were stored at 4° C. until Human analysis for TNF-α content. TNF-α levels were determined by ELISA (TNF Biotrak, GE Healthcare) following the manufacturer's directions. The percentage inhibition was calculated for each compound concentration tested, and the IC50 was calculated for each compound.

THP-1 cells = test: survival of monocytes with LPS; type: cell-based, human
p38alpha [4] = target: T1, p38alpha; test: p38 cascade kinase reaction (inactive p38alpha, MKK6, ATF2, ADP-Glo); type: biochemical; conditions: ATP 100 μM; compound 10 μM; n=4; read-out: inhibition, ATP-site competitive assay, cascade p38alpha/ATF-2
[5] = target: ATF2 (ProQinase) (Homo sapiens (Human)) (UniProt P15336)
[6] = dose response table, read-out: inhibition p38alpha/ATF-2
[7] = FLS sample R 2, compound 100 μM
[8] = FLS sample R 6, compound 100 μM
[9] = FLS sample R 8, compound 100 μM
[10] = FLS sample SH203, compound 100 μM
[11] = mean of 4 FLS samples, compound 100 μM
[12] = read-out: inhibition p38a/ATF-2 (p38 cascade)

T1 sequence (Q16539 whole entry): as the sequence (Q16539 whole entry) above

inhibition at 10 µM (p38alpha [1]; ATP 10 μM, n=4, read-out: inhibition, ATP-site competitive assay, cascade p38alpha/ATF-2): 94%
inhibition at 10 µM (p38alpha [1]; [6]): 88%
inhibition at 100 µM (p38alpha [1]; [6]): 101%
inhibition at 10 µM (p38beta; compound 10 μM): 58%
inhibition at 100 µM (p38beta; compound 100 μM): 100%
inhibition at 10 µM (p38alpha wt): 64%
inhibition at 10 µM (p38αR186A): 20%
inhibition at 10 µM (p38αR189A): 25%
inhibition at 10 µM (p38alpha [4]): 92%
Molecule: CCOC(=O)c1ccc(Nc2nc3nonc3nc2N2CCC(Cc3ccccc3)CC2)cc1 [Compound 1]
inhibition upon ATP increase (ATP-site competition) (p38alpha [1]; cascade p38alpha/ATF-2, n=4): Maintains Inhibition to the Same Level Upon ATP Increase
IL-6, % of TNF-α control [2, 7]: 13.8%
IL-8, % of TNF-α control [2, 7]: 27.3%
MCP-1, % of TNF-α control [2, 7]: 2.1%
IL-6, % of TNF-α control [2, 8]: 8.1%
IL-8, % of TNF-α control [2, 8]: 4.8%
MCP-1, % of TNF-α control [2, 8]: 0.0%
IL-6, % of TNF-α control [2, 9]: 23.5%
IL-8, % of TNF-α control [2, 9]: 67.4%
MCP-1, % of TNF-α control [2, 9]: 22.5%
IL-6, % of TNF-α control [2, 10]: 101.4%
IL-8, % of TNF-α control [2, 10]: 43.8%
MCP-1, % of TNF-α control [2, 10]: 8.8%
IL-6, % of TNF-α control, Media [2, 11]: 36.7%
IL-8, % of TNF-α control, Media [2, 11]: 35.8%
MCP-1, % of TNF-α control, Media [2, 11]: 8.4%
inhibition at 1 µM [3]: 9%
inhibition at 10 µM [3]: 40%
Cell survival (THP-1 cells; 1 uM): 96%
Cell survival (THP-1 cells; 10 uM): 93%

inhibition at 10 µM (p38alpha [1]; [12]): 8%
Molecule: Nc1ccc(OCC(O)C[n+]2ccc(CCS(=O)(=O)[O-])cc2)cc1 (stereo not drawn) [Compound 4]

inhibition at 10 µM (p38alpha [1]; [12]): 28%
Molecule: CC(C)n1nnnc1C(c1ccc(O)cc1)N1CCN(c2nc3ccccc3s2)CC1 (stereo not drawn) [Compound 5]

inhibition at 10 µM (p38alpha [1]; [12]): 16%
Molecule: Oc1nc(N/N=C/c2ccc3c(c2)OCO3)nc(N2CCOCC2)n1 [Compound 7]

inhibition at 100 µM (p38alpha [1]; [12]): 20%
Molecule: OCCOc1nc(OCCO)nc(OCCO)n1 [Compound 8]
% of inflammatory mediators production in the presence of compounds, IL6 [2]: 66.5%
% of inflammatory mediators production in the presence of compounds, IL8 [2]: 83.4%
% of inflammatory mediators production in the presence of compounds, MCP-1 [2]: 75.4%

inhibition at 10 µM (p38alpha wt): 47%
inhibition at 10 µM (p38αR186A): 23%
inhibition at 10 µM (p38αR189A): 19%
Molecule: CCOC(=O)c1ccc(Nc2nc3nonc3nc2N2CCC(Oc3ccncc3)CC2)cc1 [Compound 33]
inhibition at 0.1 µM ([3]; 0.1 uM): 21%
inhibition at 1 µM [3]: 46%
inhibition at 10 µM [3]: 62%
Cell survival (THP-1 cells; 0.1 uM): 100%
Cell survival (THP-1 cells; 1 uM): 99%
Cell survival (THP-1 cells; 10 uM): 97%

kinase activity (ADP-glo kit) (% related to wild type protein) [5]: 15.5
Molecule: p38αR186A (enzyme)

kinase activity (ADP-glo kit) (% related to wild type protein) [5]: 4.8
Molecule: p38αR189A (enzyme)

Further lines, the molecule ahead of its results:

Molecule: COc1ccccc1NC(=O)C[C@H](NCCCO)C(=O)O [Compound 3]
inhibition at 100 µM (p38alpha [1]; [12]): 17%

Molecule: CCOCCCNc1nc2nnnn2c2sc3c(c12)CCN(Cc1ccccc1)C3 [Compound 6]
inhibition at 10 µM (p38alpha [1]; [12]): 107%

Molecule: O=S(=O)(c1cnccc1N1CCN(CCO)CC1)N1CCOCC1 [Compound 11]
inhibition at 10 µM (p38alpha [1]; [12]): 1%

Molecule: CCOC(=O)N1CCN(C2=Nc3nnnn3C3CC4CN(Cc5ccccc5)CCC4C23)CC1 (stereo not drawn) [Compound 32]
inhibition at 10 µM (p38alpha wt): 23%
inhibition at 10 µM (p38αR186A): 17%
inhibition at 10 µM (p38αR189A): 9%
% of inflammatory mediators production in the presence of compounds, IL6 [2]: 52.4%
% of inflammatory mediators production in the presence of compounds, IL8 [2]: 34.8%
% of inflammatory mediators production in the presence of compounds, MCP-1 [2]: 22.7%
inhibition at 10 µM [3]: 21%
Cell survival (THP-1 cells; 10 uM): 99%

Molecule: MKK6 (ProQinase) (from UniProt P52564) (enzyme)
kinase activity of the cascade MKK6/p38α/ATF2 (ADP-glo kit) (% related to wild type protein) (p38αR186A (Homo sapiens)): 15.5
kinase activity of the cascade MKK6/p38α/ATF2 (ADP-glo kit) (% related to wild type protein) (p38αR189A (Homo sapiens)): 4.8

— patent publication US20160194336A1, “P38 MAPK INHIBITORS FOR THE TREATMENT OF INFLAMMATORY DISEASES” (ALLINKY BIOPHARMA, priority 2012, published 2016)
